Entries after “also recorded” stand apart in the source; their conditions may differ.
Columns and labels:
neutrophil cytosol = assay: UCA metabolism in neutrophil cytosol (TCA precipitation, scintillation counting, HPLC); type: in vitro ADME, human
Description: An aminopropyl stationary phase column Lichrosorb NH2, Hibar RT, 250×4 mm, 5 μm (Merck, Darmstadt, Germany) was used. The eluent was a 50% (v/v) mixture of acetonitrile and a solution of 2% (v/v) acetic acid and 0.5% (w/v) ammonium acetate in water (pH ca. 5). The isomers were detected at 268 nm, and the retention times were Tr(cis) 3.7 min and Tr(trans) 5.4 min.
Samples were mixed with OptiPhase HiSafe 2 scintillation liquid (EG&G Wallac, Turku, Finland) and [^14C]UCA radioactivity measured in RackBeta 1214 scintillation counter (EG&G Wallac). The counting efficiency was 96.7%±0.12% (mean±SEM, n=48).
Next, we examined whether the [^14C]UCA in the cytosol was metabolized by neutrophils after the uptake by determining how much of the radioactive label was associated with intact UCA. This was carried out by precipitating the cytosolic proteins of [^14C]UCA-labeled neutrophils with 10% trichloracetic acid (TCA) on ice overnight. The amount of radioactive label was then measured both in the precipitate and in the protein-free supernatant by scintillation counting, and the content of intact UCA in the supernatant by HPLC.

neutrophils [1] = assay: Monitoring of intracellular pH (BCECF flow cytometry, nigericin calibration); type: cell-based, human; conditions: for effect on intracellular BCECF signal: extracellular pH adjusted to 7.4
Description: Intracellular pH levels in neutrophils were monitored with flow cytometry utilizing a pH-sensitive fluorescent dye 2′,7′-bis-(2-carboxyethyl)-5-(and-6)-carboxyfluorescein (BCECF, acetoxymethyl ester; Molecular Probes, Leiden, The Netherlands). About 30×10^6 cells were incubated in 10 ml HBSS, pH 7.4, containing 0.35 μM BCECF at 25° C. for 30 min, washed twice in HBSS, and resuspended in 1 ml of 154 mM NaCl. Aliquot (235 μl) of the incubation medium with known UCA concentrations and checked pH was applied to the cells (4.5×10^5 cells/15 μl NaCl) in polystyrene tubes, incubated at 25° C. for about 20 min, and analyzed in a flow cytometer.
Calibration of intracellular pH was performed in situ using the K^+/H^+ ionophore nigericin. An excess of pH calibration buffers (10 mM Pipes, 131 mM KCl, pH adjusted to 6.10, 6.50, 6.80, 7.10, 7.40, and 7.60 or 7.70) and 10 μM nigericin was added to the BCECF-labelled cells in 154 mM NaCl. The cells were kept at room temperature and analysed by flow cytometry within 45 min. Cells incubated with or without UCA were analysed for intracellular pH simultaneously. The pH was adjusted to the same values as those in the calibration buffers. Intracellular pH was determined from a BCECF fluorescence intensity calibration curve.

neutrophils [2] = assay: Respiratory burst activity, opsonized zymosan-induced chemiluminescence; type: cell-based, human; conditions: 3 mM UCA
Description: The respiratory burst activity was used as a measure of neutrophil function. The UCA isomers were tested in a chemiluminescence assay with opsonized zymosan as described (Kivistö et al. 1996). The peak values were recorded.
To examine how the cytosol-acidifying effect of UCA correlates with the previously reported inhibition of neutrophil respiratory burst activity, we measured the effect of 3 mM UCA on opsonized zymosan-induced chemiluminescence by the same batch of neutrophils and in the same experimental conditions described above, i.e. when the pH of the test solution was adjusted back to its initial level after UCA addition. […] In the same conditions, cis-UCA suppressed the respiratory burst activity by 15%±8.4% and 44%±1.3%, respectively. […] The corresponding inhibitions for cis-UCA were 41%±10% at pH 6.60±0.02 (nominal pH 7.4) and 48%±1.6% at pH 6.33±0.07 (nominal pH 6.5).

[3] = pH effect of UCA isomers on incubation buffers; type: physicochemical; conditions: for pH of test solution after UCA supplementation: 3 mM UCA, unadjusted; for effect on pH of HBSS buffer: HBSS adjusted to pH 6.5 prior to UCA addition
Source text: As such, UCA resembles small ions (e.g., K^+, Na^+, H^+, […]) which enter the cell and modulate cell functions by altering the physico-chemical micro-environment (pH, ion potential, ion strength) of the cytosol. Therefore, we hypothesized that the high levels of intact UCA may provoke cellular changes simply due to its passive presence in the cytosol as an acid. […] Such a possibility was approached by testing the effect of UCA on pH first in a buffer solution and then in intact cells. […]

[4] = Protonation state calculated with the Henderson-Hasselbalch Equation; conditions: pH 6.5
Source text: It can be hypothesized that the ability of UCA to acidify cytosol in living cells depends on two major parameters: the pH of the extracellular space and the initial pH of the cytosol. Because UCA is found mainly in the skin, one should consider these two parameters in the context of the physiological environment. It is well known that the human skin has an acid mantle with a surficial pH around 4-6. When the stratum corneum is stripped layer by layer, the pH increases gradually and, after total removal of the stratum corneum, the pH in the remaining epidermis is about 6.9 (Öhman & Vahlquist, 1994). In deeper layers, the almost neutral pH of the interior body is reached. A recent analysis provides evidence that UCA is the major pH-regulating factor in the human stratum corneum (Krien & Kermici 2000). The majority of UCA resides in the stratum corneum; however, a significant amount of UCA diffuses into and evidently also through the (epi)dermis, because elevated levels of cis-UCA can be detected in the urine within 1-4 h following total-body UVB exposure (Kammayer et al. 1997). […] In contrast, at a pH below the imidazolyl pKa's, UCA would be mainly in the protonated form capable of promoting cytosolic acidification upon cell entry. […] To provide experimental support for these hypotheses, we measured the change in cytosolic pH in UCA-treated cells. […]

[5] = cited from earlier work; for imidazolyl pKa: Roberts et al. 1982, Krien & Kermici 2000
histamine receptors = conditions: Laihia, 1998; cited from earlier work
[6] = 3 mM UCA, extracellular pH 6.1-7.7, effect below pH 7
[7] = pH left unadjusted, nominal pH 6.5
[8] = pH left unadjusted, nominal pH 7.4

| Compound | recovery of [14C]UCA activity in protein-free supernatant (neutrophil cytosol; human) | effect on intracellular pH (nigericin calibration) (neutrophils [1]; [6]) | effect on intracellular BCECF signal (neutrophils [1]; 3 mM UCA) | inhibition of respiratory burst chemiluminescence (neutrophils [2]; pH adjusted back to 6.5, n=3) | inhibition of respiratory burst chemiluminescence (neutrophils [2]; pH adjusted back to 7.4) | inhibition of respiratory burst chemiluminescence (neutrophils [2]; [7]) | inhibition of respiratory burst chemiluminescence (neutrophils [2]; [8]) | pH of test solution after UCA supplementation ([3]; nominal pH 6.5) | pH of test solution after UCA supplementation ([3]; nominal pH 7.4) | effect on pH of HBSS buffer [3] | fraction in deprotonated state [4] | imidazolyl pKa [5] | recovery of [14C]UCA activity in protein-free supernatant (neutrophil cytosol; 10% TCA precipitation of cytosolic proteins, cis n=9, trans n=4) | effect on intracellular pH (nigericin calibration) (neutrophils [1]; 0.3 mM UCA, same pH range) | fraction in protonated state [4] | pKa of the carboxyl group ([5]; Roberts 1982) | binding to histamine receptors (histamine receptors) |
| --- | --- | --- | --- | --- | --- | --- | --- | --- | --- | --- | --- | --- | --- | --- | --- | --- | --- |
| O=C(O)C=Cc1c[nH]cn1 [trans-UCA, 3-(1H-imidazol-4-yl)-2-propenoic acid, reference compound] | 100.2%±0.9% | only a minor effect | no significant effect | 14%±4.0% | no effect | 48%±4.0% | 31%±8.4% | 5.87±0.06 | 6.22±0.02 | markedly reduce the pH; also recorded: dropped the pH | 70% | ~6.1 |  |  |  |  |  |
| O=C(O)/C=C\c1c[nH]cn1 [cis-UCA, cis-urocanic acid] |  | lowers the intracellular pH | no significant effect | 44%±1.3% | 15%±8.4% | 48%±1.6% | 41%±10% | 6.33±0.07 | 6.60±0.02 | almost no effect |  | ~7.0 | 102%±3.9% | much smaller effect | over 70% | ~3.3 | does not directly bind |

From patent US8673281B2 (BioCis Pharma Oy, priority 2003, dated 2014)
